BindingDB's records for doi:10.1021/jm101238d (University of Salerno, 2011)

Molecular target: Prostaglandin E synthase, mPGES-1 (Homo sapiens) (UniProt O14684)
Assay: Inhibition of Prostaglandin E2 synthase-1 in IL1-beta stimulated microsomal fraction of human A549 cell assessed as PGE2 level by RP-HPLC

Chain of Prostaglandin E synthase, mPGES-1 (Homo sapiens) (O14684 whole entry, looked up): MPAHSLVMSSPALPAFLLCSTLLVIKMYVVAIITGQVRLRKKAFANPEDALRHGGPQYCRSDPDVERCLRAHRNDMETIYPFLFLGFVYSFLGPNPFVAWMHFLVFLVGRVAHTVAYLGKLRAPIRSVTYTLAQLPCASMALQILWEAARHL

SMILES | IC50
Oc1cccc(-c2ccc(-c3cn(CSc4ccccc4)nn3)cc2)c1 [4'-(1-Phenylsulfanylmethyl-1H-[1,2,3]triazol-4-yl)-biphenyl-3-ol] | > 30 µM
Oc1ccc(-c2ccc(-c3cn(CSc4ccccc4)nn3)cc2)cc1 [4'-(1-Phenylsulfanylmethyl-1H-[1,2,3]triazol-4-yl)-biphenyl-4-ol] | > 30 µM
Cc1ccccc1CCn1cc(-c2ccc(-c3ccc(N)cc3)cc2)nn1 [4'-[1-(2-o-Tolyl-ethyl)-1H-[1,2,3]triazol-4-yl]-biphenyl-4-ylamine] | > 30 µM
Oc1ccc(-c2ccc(-c3cn(CCCc4ccccc4)nn3)cc2)cc1 [4'-[1-(3-Phenyl-propyl)-1H-[1,2,3]triazol-4-yl]-biphenyl-4-ol] | > 30 µM
O=C(O)c1ccc(Cn2cc(-c3ccc(-c4ccccc4)cc3)nn2)c([N+](=O)[O-])c1 [4-(4-Biphenyl-4-yl-[1,2,3]triazol-1-ylmethyl)-3-nitro-benzoic acid] | 3.2 µM
O=Cc1ccc(-c2c(Cc3ccccc3)nnn2CSc2ccccc2)cc1 [4-(5-Benzyl-3-phenylsulfanylmethyl-3H-[1,2,3]triazol-4-yl)-benzaldehyde] | > 30 µM
Cc1ccccc1CCn1cc(-c2ccc(-c3ccccc3COc3cc(C(F)(F)F)ccc3Cl)cc2)nn1 [4-[2'-(2-Chloro-5-trifluoromethyl-phenoxymethyl)-biphenyl-4-yl]-1-(2-o-tolyl-ethyl)-1H-[1,2,3]triazole] | > 30 µM
CN(C)c1cccc2c(S(=O)(=O)Nc3ccc(-c4ccc(-c5cn(CCCc6ccccc6)nn5)cc4)cc3)cccc12 [5-Dimethylamino-naphthalene-1-sulfonic acid{4'-[1-(3-phenyl-propyl)-1H-[1,2,3]triazol-4-yl]-biphenyl-4-yl}-amide] | > 30 µM
O=C(OCc1cn(CSc2ccccc2)nn1)c1ccccc1 [Benzoic acid 1-Phenylsulfanylmethyl-1H-[1,2,3]Triazol-4-ylmethyl Ester] | > 30 µM

Next, values leading:

IC50 | SMILES
> 30 µM | c1ccc(CCCn2cc(-c3ccc(-c4ccc(Oc5ccccc5)cc4)cc3)nn2)cc1 [4-(4'-Phenoxy-biphenyl-4-yl)-1-(3-phenyl-propyl)-1H-[1,2,3]triazole]
> 30 µM | c1ccc(CCCn2cc(-c3ccc(-c4cc5ccccc5c5ccccc45)cc3)nn2)cc1 [4-(4-Phenanthren-9-yl-phenyl)-1-(3-phenyl-propyl)-1H-[1,2,3]triazole]
> 30 µM | FC(F)(F)c1ccc(Cl)c(OCc2ccccc2-c2ccc(-c3cn(CCCc4ccccc4)nn3)cc2)c1 [4-[2'-(2-Chloro-5-trifluoromethyl-phenoxymethyl)-biphenyl-4-yl]-1-(3-phenyl-propyl)-1H-[1,2,3]triazole]
> 30 µM | Cc1ccccc1CCn1cc(-c2ccc(-c3ccccc3COc3cccc4ccccc34)cc2)nn1 [4-[2'-(Naphthalen-1-yloxymethyl)-biphenyl-4-yl]-1-(2-o-tolyl-ethyl)-1H-[1,2,3]triazole]
> 30 µM | c1ccc(CCCn2cc(-c3ccc(-c4ccccc4COc4cccc5ccccc45)cc3)nn2)cc1 [4-[2'-(Naphthalen-1-yloxymethyl)-biphenyl-4-yl]-1-(3-phenyl-propyl)-1H-[1,2,3]triazole]
> 30 µM | O=C(O)c1ccc(S(=O)(=O)n2cc(-c3ccc(-c4ccccc4COc4cccc5ccccc45)cc3)nn2)cc1 [4-{4-[2'-(Naphthalen-1-yloxymethyl)-biphenyl-4-yl]-1,2,3]triazole-1-sulfonyl}-benzoic acid]
